What was measured:
Type in all cases: in vivo
[1] = tested on: Myzus persicae; assay: Example B7: Myzus persicae (green peach aphid), intrinsic activity, sucrose solution 24-well; details: 120 h, application rate of 12.5 ppm, 5 days after infestation, read-out: control (mortality)
Procedure, shortened: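 Compounds from 10,000 ppm DMSO stocks were mixed into sucrose solution in wells at a rate of 12.5 ppm. Aphid-infested pea seedlings were placed on a Parafilm membrane over the solution, so aphids fed through it. Mortality was scored 5 days after infestation.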

[2] = tested on: Euschistus heros; assay: Example B3: Euschistus heros (neotropical brown stink bug), soybean leaves, N2 nymphs; details: 120 h, application rate of 200 ppm, 5 days after infestation, read-out: control in at least one of the two categories (mortality or growth inhibition)
Protocol: Example B3: Euschistus heros (Neotropical Brown Stink Bug)
Soybean leaves on agar in 24-well microtiter plates were sprayed with aqueous test solutions prepared from 10,000 ppm DMSO stock solutions. After drying the leaves were infested with N2 nymphs. The samples were assessed for mortality and growth inhibition in comparison to untreated samples 5 days after infestation.
(§1) The following compounds gave an effect of at least 80% control in at least one of the two categories (mortality or growth inhibition) at an application rate of 200 ppm: […]

[3] = tested on: Diabrotica balteata; assay: Example B2: Diabrotica balteata (corn root worm), maize sprouts, L2 larvae; details: 96 h, application rate of 200 ppm, 4 days after infestation, read-out: control in at least one of the two categories (mortality or growth inhibition)
Protocol: Example B2: Diabrotica balteata (Corn Root Worm)
Maize sprouts placed onto an agar layer in 24-well microtiter plates were treated with aqueous test solutions prepared from 10,000 ppm DMSO stock solutions by spraying. After drying, the plates were infested with L2 larvae (6 to 10 per well). The samples were assessed for mortality and growth inhibition in comparison to untreated samples 4 days after infestation.
as §1

[4] = tested on: Plutella xylostella; assay: Example B8: Plutella xylostella (diamond back moth), artificial diet 24-well, eggs; details: 192 h, application rate of 200 ppm, 8 days after infestation, read-out: effect in at least one of the two categories (mortality or growth inhibition)
Procedure, shortened: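 Artificial diet in 24-well plates treated with aqueous dilutions of DMSO stock (10,000 ppm stock) and dried, then infested with Plutella eggs. Mortality and growth inhibition scored versus untreated samples 8 days after infestation.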

[5] = tested on: Spodoptera littoralis; assay: Example B9: Spodoptera littoralis (Egyptian cotton leaf worm), cotton leaf discs, L1 larvae; details: foliar, 72 h, application rate of 200 ppm, 3 days after infestation, read-out: control in at least one of the three categories (mortality, anti-feedant effect, or growth inhibition)
Procedure, shortened: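 Cotton leaf discs on agar sprayed with aqueous test solutions from 10,000 ppm DMSO stocks, dried, then infested with five L1 larvae. Mortality, anti-feeding and growth inhibition scored against untreated samples 3 days after infestation.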

[6] = tested on: Chilo suppressalis; assay: Example B1: Chilo suppressalis (striped rice stemborer), artificial diet, L2 larvae; details: 144 h, application rate of 200 ppm, 6 days after infestation, read-out: control in at least one of the three categories (mortality, anti-feedant effect, or growth inhibition)
Procedure, shortened: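 Artificial diet was treated with aqueous test solutions made from 10,000 ppm DMSO stocks, dried, then infested with L2 larvae (6-8 per well). Mortality, anti-feeding effect and growth inhibition were scored against untreated samples 6 days after infestation, and control was counted when any category exceeded untreated.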

[7] = tested on: Myzus persicae; assay: Example B5: Myzus persicae (green peach aphid), feeding/contact activity; details: 144 h, application rate of 200 ppm, 6 days after infestation
Protocol: Example B5: Myzus persicae (Green Peach Aphid):Feeding/Contact Activity
Sunflower leaf discs were placed onto agar in a 24-well microtiter plate and sprayed with aqueous test solutions prepared from 10,000 ppm DMSO stock solutions. After drying, the leaf discs were infested with an aphid population of mixed ages. The samples were assessed for mortality 6 days after infestation.

C[C@H](NC(=O)Nc1cc(F)c(Br)cc1OC(F)F)c1ncnn1-c1ncccn1 [Example P390, 1-[4-bromo-2-(difluoromethoxy)-5-fluoro-phenyl]-3-[(1S)-1-(2-pyrimidin-2-yl-1,2,4-triazol-3-yl)ethyl]urea]
≥ 80%: mortality at 12.5 ppm [1] | percent control (mortality or growth inhibition) at 200 ppm [2] | percent control (mortality or growth inhibition) at 200 ppm [3] | percent effect (mortality or growth inhibition) at 200 ppm [4] | percent control (mortality, anti-feedant effect or growth inhibition) at 200 ppm [5] | percent control (mortality, anti-feedant effect or growth inhibition) at 200 ppm [6]

C[C@H](NC(=O)Nc1cc(C#N)c(F)cc1F)c1ncnn1-c1ncccn1 [Example P391, 1-(5-cyano-2,4-difluoro-phenyl)-3-[(1S)-1-(2-pyrimidin-2-yl-1,2,4-triazol-3-yl)ethyl]urea]
≥ 80%: mortality at 12.5 ppm [1] | percent control (mortality or growth inhibition) at 200 ppm [2] | percent control (mortality, anti-feedant effect or growth inhibition) at 200 ppm [6]

C[C@H](NC(=O)Nc1cc(C(F)(F)F)c(Cl)cc1Br)c1nccnc1-c1ccc(C#N)cn1 [Example P246, 1-[2-bromo-4-chloro-5-(trifluoromethyl)phenyl]-3-[(1S)-1-[3-(5-cyano-2-pyridyl)pyrazin-2-yl]ethyl]urea]
≥ 80%: percent control (mortality or growth inhibition) at 200 ppm [2] | percent control (mortality or growth inhibition) at 200 ppm [3] | percent control (mortality, anti-feedant effect or growth inhibition) at 200 ppm [5]

C[C@H](NC(=O)Nc1cc(OC(F)(F)C(F)F)c(Cl)cc1Cl)c1ncnn1-c1ccc(=O)n(C)n1 [Example P269, 1-[2,4-dichloro-5-(1,1,2,2-tetrafluoroethoxy)phenyl]-3-[(1S)-1-[2-(1-methyl-6-oxo-pyridazin-3-yl)-1,2,4-triazol-3-yl]ethyl]urea]
≥ 80%: mortality at 12.5 ppm [1] | percent control (mortality or growth inhibition) at 200 ppm [2] | percent control (mortality or growth inhibition) at 200 ppm [3] | percent control (mortality, anti-feedant effect or growth inhibition) at 200 ppm [5]

C[C@H](NC(=O)Nc1ccc(Br)cc1OC(F)F)c1ncnn1-c1ncccn1 [Example P58, 1-[4-bromo-2-(difluoromethoxy)phenyl]-3-[(1S)-1-(2-pyrimidin-2-yl-1,2,4-triazol-3-yl)ethyl]urea]
≥ 80%: mortality at 12.5 ppm [1] | percent control (mortality or growth inhibition) at 200 ppm [3] | percent effect (mortality or growth inhibition) at 200 ppm [4] | percent control (mortality, anti-feedant effect or growth inhibition) at 200 ppm [5] | percent control (mortality, anti-feedant effect or growth inhibition) at 200 ppm [6] | mortality at 200 ppm [7]

C[C@H](NC(=O)Nc1ccc(C(F)(F)F)cc1I)c1ncnn1-c1ncccn1 [Example P72, 1-[2-iodo-4-(trifluoromethyl)phenyl]-3-[(1S)-1-(2-pyrimidin-2-yl-1,2,4-triazol-3-yl)ethyl]urea]
≥ 80%: mortality at 12.5 ppm [1] | percent control (mortality or growth inhibition) at 200 ppm [2] | percent effect (mortality or growth inhibition) at 200 ppm [4] | percent control (mortality, anti-feedant effect or growth inhibition) at 200 ppm [5] | percent control (mortality, anti-feedant effect or growth inhibition) at 200 ppm [6]

C[C@H](NC(=O)Nc1ccc(C(F)(F)F)nc1Cl)c1ncnn1-c1ncccn1 [Example P18, 1-[2-chloro-6-(trifluoromethyl)-3-pyridyl]-3-[(1S)-1-(2-pyrimidin-2-yl-1,2,4-triazol-3-yl)ethyl]urea]
≥ 80%: mortality at 12.5 ppm [1] | percent control (mortality or growth inhibition) at 200 ppm [2] | percent control (mortality, anti-feedant effect or growth inhibition) at 200 ppm [5]

C[C@H](NC(=O)N(C)c1cc(OC(F)(F)C(F)F)c(Cl)cc1Cl)c1ncnn1-c1ncccn1 [Example P176, 1-[2,4-dichloro-5-(1,1,2,2-tetrafluoroethoxy)phenyl]-1-methyl-3-[(1S)-1-(2-pyrimidin-2-yl-1,2,4-triazol-3-yl)ethyl]urea]
≥ 80%: mortality at 12.5 ppm [1] | percent control (mortality or growth inhibition) at 200 ppm [3] | percent effect (mortality or growth inhibition) at 200 ppm [4] | percent control (mortality, anti-feedant effect or growth inhibition) at 200 ppm [5] | percent control (mortality, anti-feedant effect or growth inhibition) at 200 ppm [6] | mortality at 200 ppm [7]

C[C@H](NC(=O)Nc1cc(C#N)c(Cl)cc1F)c1ncnn1-c1ncccn1 [Example P182, 1-(4-chloro-5-cyano-2-fluoro-phenyl)-3-[(1S)-1-(2-pyrimidin-2-yl-1,2,4-triazol-3-yl)ethyl]urea]
≥ 80%: mortality at 12.5 ppm [1] | percent control (mortality or growth inhibition) at 200 ppm [2] | percent effect (mortality or growth inhibition) at 200 ppm [4] | percent control (mortality, anti-feedant effect or growth inhibition) at 200 ppm [5] | percent control (mortality, anti-feedant effect or growth inhibition) at 200 ppm [6]

C[C@@H](c1ncnn1-c1ncccn1)N(C)C(=O)N(C)c1cc(OC(F)(F)C(F)F)c(Cl)cc1Cl [Example P132, 1-[2,4-dichloro-5-(1,1,2,2-tetrafluoroethoxy)phenyl]-1,3-dimethyl-3-[(1S)-1-(2-pyrimidin-2-yl-1,2,4-triazol-3-yl)ethyl]urea]
≥ 80%: mortality at 12.5 ppm [1] | percent control (mortality or growth inhibition) at 200 ppm [3] | percent effect (mortality or growth inhibition) at 200 ppm [4] | percent control (mortality, anti-feedant effect or growth inhibition) at 200 ppm [5] | percent control (mortality, anti-feedant effect or growth inhibition) at 200 ppm [6] | mortality at 200 ppm [7]

C[C@H](NC(=O)Nc1cnc(Br)cc1Br)c1ncnn1-c1ccc(C#N)cn1 [Example P255, 1-[(1S)-1-[2-(5-cyano-2-pyridyl)-1,2,4-triazol-3-yl]ethyl]-3-(4,6-dibromo-3-pyridyl)urea]
≥ 80%: percent control (mortality or growth inhibition) at 200 ppm [2] | percent effect (mortality or growth inhibition) at 200 ppm [4] | percent control (mortality, anti-feedant effect or growth inhibition) at 200 ppm [5] | percent control (mortality, anti-feedant effect or growth inhibition) at 200 ppm [6]

C[C@H](NC(=O)Nc1cc(C(F)(F)F)c(Br)cc1Br)c1ncnn1-c1ncccn1 [Example P205, 1-[2,4-dibromo-5-(trifluoromethyl)phenyl]-3-[(1S)-1-(2-pyrimidin-2-yl-1,2,4-triazol-3-yl)ethyl]urea]
≥ 80%: mortality at 12.5 ppm [1] | percent control (mortality or growth inhibition) at 200 ppm [3] | percent effect (mortality or growth inhibition) at 200 ppm [4] | percent control (mortality, anti-feedant effect or growth inhibition) at 200 ppm [5] | percent control (mortality, anti-feedant effect or growth inhibition) at 200 ppm [6] | mortality at 200 ppm [7]

C[C@H](NC(=O)Nc1cnc(Br)cc1Br)c1ncnn1-c1ncccn1 [Example P55, 1-(4,6-dibromo-3-pyridyl)-3-[(1S)-1-(2-pyrimidin-2-yl-1,2,4-triazol-3-yl)ethyl]urea]
≥ 80%: mortality at 12.5 ppm [1] | percent control (mortality or growth inhibition) at 200 ppm [2] | percent effect (mortality or growth inhibition) at 200 ppm [4] | percent control (mortality, anti-feedant effect or growth inhibition) at 200 ppm [5] | percent control (mortality, anti-feedant effect or growth inhibition) at 200 ppm [6]

C[C@@H](c1ncnn1-c1ncccn1)N(C)C(=O)Nc1cc(OC(F)(F)C(F)F)c(Cl)cc1Cl [Example P133, 3-[2,4-dichloro-5-(1,1,2,2-tetrafluoroethoxy)phenyl]-1-methyl-1-[(1S)-1-(2-pyrimidin-2-yl-1,2,4-triazol-3-yl)ethyl]urea]
≥ 80%: mortality at 12.5 ppm [1] | percent control (mortality or growth inhibition) at 200 ppm [3] | percent effect (mortality or growth inhibition) at 200 ppm [4] | percent control (mortality, anti-feedant effect or growth inhibition) at 200 ppm [5] | percent control (mortality, anti-feedant effect or growth inhibition) at 200 ppm [6] | mortality at 200 ppm [7]

C[C@H](NC(=O)Nc1cc(OC(F)(F)C(F)F)c(Cl)cc1Cl)c1nccnc1-c1ncccn1 [Example P135, 1-[2,4-dichloro-5-(1,1,2,2-tetrafluoroethoxy)phenyl]-3-[(1S)-1-(3-pyrimidin-2-ylpyrazin-2-yl)ethyl]urea]
≥ 80%: mortality at 12.5 ppm [1] | percent control (mortality or growth inhibition) at 200 ppm [3] | percent effect (mortality or growth inhibition) at 200 ppm [4] | percent control (mortality, anti-feedant effect or growth inhibition) at 200 ppm [5] | percent control (mortality, anti-feedant effect or growth inhibition) at 200 ppm [6] | mortality at 200 ppm [7]

C[C@H](NC(=O)Nc1cc(OC(F)(F)C(F)F)c(Cl)cc1Cl)c1ncnn1-c1cnccn1 [Example P278, 1-[2,4-dichloro-5-(1,1,2,2-tetrafluoroethoxy)phenyl]-3-[(1S)-1-(2-pyrazin-2-yl-1,2,4-triazol-3-yl)ethyl]urea]
≥ 80%: mortality at 12.5 ppm [1] | percent control (mortality or growth inhibition) at 200 ppm [3] | percent effect (mortality or growth inhibition) at 200 ppm [4] | percent control (mortality, anti-feedant effect or growth inhibition) at 200 ppm [5] | percent control (mortality, anti-feedant effect or growth inhibition) at 200 ppm [6] | mortality at 200 ppm [7]
